The test system of assay [1] is AD45-AldH. Kind of assay: NADH formation at […] nm, Michaelis-Menten fit. Type of assay: biochemical, Rhodococcus sp. AD45. The note with it: NAD+ 5 mM, 50 mM sodium carbonate pH 10.0.
The subject of assay [2] is T1, WS11-AldH.
T1 construct: isoprene cluster copy, on megaplasmid
The experiment in a line: NADH formation at […] nm, Michaelis-Menten fit. In kind it is biochemical, Variovorax sp. WS11. The note with it: NAD+ 5 mM, 50 mM sodium carbonate pH 10.0.

The subject of assay [3] is AD45-AldH. Kind of assay: NADH formation at […] nm, substrate inhibition model at high concentrations. The note with it: NAD+ 5 mM, 50 mM sodium carbonate pH 10.0, racemic substrate. In kind it is biochemical, Rhodococcus sp. AD45.
The test system of assay [4] is T1, WS11-AldH. The description is as above. The note with it: NAD+ 5 mM, 50 mM sodium carbonate pH 10.0, racemic substrate. In kind it is biochemical, Variovorax sp. WS11.

Consider `CCC=O` [propanal], for which the Km in the assay on AD45-AldH [1] is 570 µM; in the assay on WS11-AldH [2] (predicted Km, not saturated at 10 mM), roughly 10900 µM.
With `CCCC=O` [butanal], the Km with AD45-AldH [1] worked out at 80 µM; with WS11-AldH [2], 690 µM.
In the case of `CCC(C)C=O` (racemic) [2-methylbutanal], the Km came to 30 µM in the assay with AD45-AldH [3] and 120 µM with WS11-AldH [4].

A word on the Km: it is the substrate concentration at which the rate is half of its maximum.

These data come from paper PMC10057887, “Analysis of Essential Isoprene Metabolic Pathway Proteins in Variovorax sp. Strain WS11” (Applied and Environmental Microbiology, 2023).
